The subject of test [1] is quisqualic acid stimulated spreading depression in chicken retina. The test is described as follows: Spreading depression in chicken retina (Test 2). Conditions: 50% maximal inhibition of spreading depression; quisqualate 1 µg/ml, chick retina, 26°C. The method, then: The antagonism is measured by determining the IC50 value which represents the concentration which produces a 50% maximal inhibition of quisqualic acid stimulated spreading depression in chicken retina.
Spreading depression (Test 2)
Chicks (3-10 days old) were decapitated, the eyes enucleated and sectioned along the equatorial plane. After removal of the anterior chamber and the vitreous body, the posterior chamber of each eye was placed in a small petri dish containing a physiological saline solution (P.S.S.) of the following composition (mM) NaCI (100), KCI (6.0), CaCl2 (1.0), MgSO4 (1.0), NaHCO3 (30), NaH2PO4 (1.0), glucose (20).
The solution was saturated with 100% O2 and maintained at a temperature of 26°C.
The eyes were initially incubated in normal P.S.S. for 15-30 min. and then transferred to P.S.S. containing quisqualate (1 µg/ml). […] The time taken for an S.D. to start in each eye was measured.
After a further 15 min. of incubation in normal P.S.S. the eyes were transferred to normal P.S.S. containing the test compound and incubated for 15 min. […] The time taken for an S.D. to start in each eye was measured again. The eyes were then placed back in normal P.S.S. and after 15 min. the time taken for S.D. to start was measured again, in order to assess the degree of recovery from any drug effects. […]

The next test has as its target AMPA receptors. As to the kind of experiment: 3H-AMPA binding (Test 1). Particulars: displacement of 50% of specific 3H-AMPA binding (5 nM); rat cerebral cortical membrane homogenate, 0°C, 30 min. As to the method:
The displacement activity of the compounds may be shown by determining the IC50 value which represents the concentration (µM) which causes a displacement of 50% of the specific binding of ^3H-AMPA.
^3H-AMPA binding (Test 1)
500 µl of thawed rat cerebral cortical membrane homogenate in Tris-HCI (30 mM), CaCl2 (2.5 mM) and KSCN (100 mM) pH 7.1 were incubated at 0°C for 30 min. with 25 µl ^3H-AMPA (5 nM final concentration) and the test compound and buffer. Nonspecific binding was determined by incubation with L-glutamic acid (600 µM final concentration). The binding reaction was terminated by adding 5 ml of ice-cold buffer followed by filtration through Whatman GF/C glass fibre filters and 2x5 ml wash with ice-cold buffer. Bound radioactivity was measured by scintillation counting. IC50 was determined by Hill analysis of at least four concentrations of test compound.

Molecules are shown by their SMILES.

As for `CCOP(=O)(O)Cc1nnc2c(=O)[nH]c3cc(C(F)(F)F)c(-n4ccnc4)cc3n12` [Example 1, 1-(Ethoxy-hydroxy-phosphorylmethyl)-8-(1H-imidazol-1-yl)-7-trifluoromethyl[1,2,4]triazolo[4,3-a]quinoxalin-4(5H)-one], the results for the IC50 (in test [1]; on AMPA receptors) were 1310 nM and 240 nM, respectively.

(Values after patent publication EP0781282B1, “[1,2,4]TRIAZOLO[4,3-a]QUINOXALINONE DERIVATIVES, THEIR PREPARATION AND USE” (NOVO NORDISK A/S, priority 1994, dated 1996).)
